Measured values published in PMC10324308, “Biodegradation of Amphipathic Fluorinated Peptides Reveals a New Bacterial Defluorinating Activity and a New Source of Natural Organofluorine Compounds” (Environmental Science & Technology, 2023).
Where a SMILES comes first, the peptide text is derived from it. [ ]: non-standard residue; d: D form. Abu(4,4,4-F3) = N[C@@H](CC(F)(F)F)C(=O)O; Abu(4,4-F2) = N[C@@H](CC(F)F)C(=O)O; 4Abz = Nc1ccc(C(=O)O)cc1; Abu = CC[C@H](N)C(=O)O

How the values were obtained:
β-trypsin (pancreas) = test: Peptide digestion assay with β-trypsin; format: in vitro ADME; conditions: after 2 h; 500 μM peptide, trypsin 0.075 μM, 50 mM bis-tris propane + 20 mM CaCl2, pH 8, 37 °C, 300 rpm; HPLC (DAD-280 nm); triplicates
Protocol: (§1) Freeze-dried peptides AbuK16, MfeGlyK16, DfeGlyK16, and TfeGlyK16 were dissolved in 100 μL of buffer (50 mM bis-tris propane + 20 mM CaCl2, pH 8) to a final concentration of 500 μM. The peptides were incubated with different proteolytic enzymes (10 μL in buffer): trypsin (0.075 μM), elastase (0.45 μM), proteinase K (0.075 μM), and bromelain (4.5 μM). The experiments were incubated at either 37 °C (trypsin and proteinase K) or 30 °C (elastase and bromelain) in a Thriller thermoshaker-incubator (VWR International, Radnor, PA, USA) with shaking at 300 rpm. Aliquots (15 μL) were taken at fixed time points and quenched with 90 μL of a solution of 30% acetic acid in water containing 133 μM Ac-[4]Abz-Gly-OH as a reference. Peptide degradation was monitored by high-performance liquid chromatography (HPLC) using a Hitachi Primaide UV-HPLC system (VWR/Hitachi, Darmstadt, Germany). A Kinetex RP-C18 ([…], 100 Å, 250 × 4.6 mm, Phenomenex, USA) column and a SecurityGuard Cartridge Kit equipped with a C18 cartridge (4 × 3.0 mm, Phenomenex, USA) as a pre-column was used. The mobile phases employed were 0.1% aqueous […] (TFA) (solvent A) and acetonitrile + 0.1% TFA (solvent B). The solvent conditions for analysis were as follows: 0–5 min, 5% B; 5–20 min, 5–90% B; 20–23 min, 90–100% B; 23–25 min, 100% B; 25–27 min, 100–5% B; and 27–30 min, 5% B. In all cases, the peaks corresponding to each peptide sample (full-length peptides) and the reference sample were integrated and used to determine the amount of the substrate still present in solution. The content of starting material after 5 min was termed as absolute amount for simplicity. All experiments were performed in triplicates, and error bars were obtained as standard deviations of measurements.
(§2) Figure 2 Proteolytic digestion of AbuK16, MfeGlyK16, DfeGlyK16, and TfeGlyK16 by the serine proteases β-trypsin, elastase, proteinase K, and bromelain (pineapple stem) in 50 mM bis-tris propane + 20 mM CaCl2, pH 8, at 37 °C (β-trypsin and proteinase K) or 30 °C (elastase and bromelain). Real-time detection of peptide proteolysis and calculation of remaining peptide amounts were accomplished by HPLC analysis (DAD-280 nm).

[1] = target: T1, bromelain (pineapple stem) (Ananas comosus, UniProt P14518); test: Peptide digestion assay with bromelain; format: in vitro ADME; conditions: 500 μM peptide, bromelain 4.5 μM, 50 mM bis-tris propane + 20 mM CaCl2, pH 8, 30 °C, HPLC (DAD-280 nm); for digestion by bromelain: 300 rpm, triplicates
T1 construct: purchased Sigma-Aldrich (Steinheim, Germany); host or cells: pineapple stem
T1 sequence (P14518 1-212): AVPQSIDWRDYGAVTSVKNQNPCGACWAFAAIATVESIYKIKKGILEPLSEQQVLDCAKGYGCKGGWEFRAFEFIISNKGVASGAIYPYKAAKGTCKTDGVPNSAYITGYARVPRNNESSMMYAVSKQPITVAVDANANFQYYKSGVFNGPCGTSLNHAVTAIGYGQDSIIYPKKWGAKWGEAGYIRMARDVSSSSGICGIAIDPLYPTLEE
Protocol: as §1, §2

elastase (pancreas) = target: T2, elastase (pancreas) (Sus scrofa, UniProt P00772); test: Peptide digestion assay with elastase; format: in vitro ADME; conditions: after 4 h; 500 μM peptide, elastase 0.45 μM, 50 mM bis-tris propane + 20 mM CaCl2, pH 8, 30 °C, 300 rpm; HPLC (DAD-280 nm); triplicates
T2 construct: purchased Sigma-Aldrich (Steinheim, Germany); host or cells: pancreas
T2 sequence (P00772 27-266): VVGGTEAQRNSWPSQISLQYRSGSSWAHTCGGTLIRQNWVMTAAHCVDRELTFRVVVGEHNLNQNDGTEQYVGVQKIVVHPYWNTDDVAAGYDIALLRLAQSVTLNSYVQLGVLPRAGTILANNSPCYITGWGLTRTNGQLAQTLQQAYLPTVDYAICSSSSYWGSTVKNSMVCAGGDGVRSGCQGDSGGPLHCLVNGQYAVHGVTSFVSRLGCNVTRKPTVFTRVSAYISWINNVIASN
Protocol: as §1, with “The solvent conditions for analysis were as follows: 0–5 min, 5% B; 5–20 min, 5–90% B; 20–23 min, 90–100% B; 23–25 min, 100% B; 25–27 min, 100–5% B; and 27–30 min, 5% B. In all cases, the peaks corresponding to each peptide sample (full-length peptides) and the reference sample were integrated and used to determine the amount of the substrate still present in solution. The content of starting material after 5 min was termed as absolute amount for simplicity. All experiments were performed in triplicates, and error bars were obtained as standard deviations of measurements.” left out

proteinase K = target: T3, proteinase K (Parengyodontium album, UniProt P06873); test: Peptide digestion assay with proteinase K; format: in vitro ADME, Tritirachium album; conditions: 500 μM peptide, proteinase K 0.075 μM, 50 mM bis-tris propane + 20 mM CaCl2, pH 8, 37 °C, HPLC (DAD-280 nm), triplicates; for proteolytic stability against proteinase K: after 4 h, 300 rpm
T3 construct: purchased Sigma-Aldrich (Steinheim, Germany)
T3 sequence (P06873 106-384): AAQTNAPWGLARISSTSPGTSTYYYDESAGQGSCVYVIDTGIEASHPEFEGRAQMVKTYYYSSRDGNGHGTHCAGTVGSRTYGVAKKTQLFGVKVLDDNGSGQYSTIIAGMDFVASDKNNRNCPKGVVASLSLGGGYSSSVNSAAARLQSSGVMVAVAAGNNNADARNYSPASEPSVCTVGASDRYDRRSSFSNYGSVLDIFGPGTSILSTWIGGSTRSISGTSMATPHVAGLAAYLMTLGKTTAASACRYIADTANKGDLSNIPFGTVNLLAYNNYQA
Protocol: as §1
Figure 2 Proteolytic digestion of AbuK16, MfeGlyK16, DfeGlyK16, and TfeGlyK16 by the serine proteases β-trypsin, elastase, proteinase K, and bromelain (pineapple stem) in 50 mM bis-tris propane + 20 mM CaCl2, pH 8, at 37 °C (β-trypsin and proteinase K) or 30 °C (elastase and bromelain). […]

Row | SMILES | remaining full-length peptide after digestion by β-trypsin (β-trypsin (pancreas)) | digestion by bromelain [1] | remaining full-length peptide after digestion by elastase (elastase (pancreas)) | remaining peptide after digestion by bromelain ([1]; after 3 days incubation) | proteolytic stability against proteinase K (proteinase K) | digestion by proteinase K (proteinase K; within 24 h)
1 | CC[C@H](NC(C)=O)C(=O)N[C@@H](CCCCN)C(=O)N[C@@H](CC)C(=O)N[C@@H](CCCCN)C(=O)N[C@@H](CC)C(=O)N[C@@H](CCCCN)C(=O)N[C@@H](CC)C(=O)N[C@@H](CCCCN)C(=O)N[C@@H](CC)C(=O)N[C@@H](CCCCN)C(=O)N[C@@H](CC)C(=O)N[C@@H](CCCCN)C(=O)N[C@@H](CC)C(=O)N[C@@H](CCCCN)C(=O)N[C@@H](CC)C(=O)N[C@@H](CCCCN)C(=O)Nc1ccc(C(N)=O)cc1 [AbuK16, Ac-(Abu-Lys)8-[4]Abz-NH2] (Ac-[Abu]K[Abu]K[Abu]K[Abu]K[Abu]K[Abu]K[Abu]K[Abu]K[4Abz]-NH2) | comparably higher amounts of peptide were detected | digested | – | – | – | –
2 | CC(=O)N[C@@H](CC(F)(F)F)C(=O)N[C@@H](CCCCN)C(=O)N[C@@H](CC(F)(F)F)C(=O)N[C@@H](CCCCN)C(=O)N[C@@H](CC(F)(F)F)C(=O)N[C@@H](CCCCN)C(=O)N[C@@H](CC(F)(F)F)C(=O)N[C@@H](CCCCN)C(=O)N[C@@H](CC(F)(F)F)C(=O)N[C@@H](CCCCN)C(=O)N[C@@H](CC(F)(F)F)C(=O)N[C@@H](CCCCN)C(=O)N[C@@H](CC(F)(F)F)C(=O)N[C@@H](CCCCN)C(=O)N[C@@H](CC(F)(F)F)C(=O)N[C@@H](CCCCN)C(=O)Nc1ccc(C(N)=O)cc1 [TfeGlyK16, Ac-(TfeGly-Lys)8-[4]Abz-NH2] (Ac-[Abu(4,4,4-F3)]K[Abu(4,4,4-F3)]K[Abu(4,4,4-F3)]K[Abu(4,4,4-F3)]K[Abu(4,4,4-F3)]K[Abu(4,4,4-F3)]K[Abu(4,4,4-F3)]K[Abu(4,4,4-F3)]K[4Abz]-NH2) | mostly consumed | resistant to this protease | lower amounts of DfeGlyK16 and TfeGlyK16 detected than AbuK16 and MfeGlyK16 | noticeable amounts of this peptide were still present | pronounced stability | largely digested
3 | CC(=O)N[C@@H](CCF)C(=O)N[C@@H](CCCCN)C(=O)N[C@@H](CCF)C(=O)N[C@@H](CCCCN)C(=O)N[C@@H](CCF)C(=O)N[C@@H](CCCCN)C(=O)N[C@@H](CCF)C(=O)N[C@@H](CCCCN)C(=O)N[C@@H](CCF)C(=O)N[C@@H](CCCCN)C(=O)N[C@@H](CCF)C(=O)N[C@@H](CCCCN)C(=O)N[C@@H](CCF)C(=O)N[C@@H](CCCCN)C(=O)N[C@@H](CCF)C(=O)N[C@@H](CCCCN)C(=O)Nc1ccc(C(N)=O)cc1 [MfeGlyK16, Ac-(MfeGly-Lys)8-[4]Abz-NH2] | comparably higher amounts of peptide were detected | digested | – | – | higher proteolytic stability of MfeGlyK16 than that for AbuK16 and DfeGlyK16 | –
4 | CC(=O)N[C@@H](CC(F)F)C(=O)N[C@@H](CCCCN)C(=O)N[C@@H](CC(F)F)C(=O)N[C@@H](CCCCN)C(=O)N[C@@H](CC(F)F)C(=O)N[C@@H](CCCCN)C(=O)N[C@@H](CC(F)F)C(=O)N[C@@H](CCCCN)C(=O)N[C@@H](CC(F)F)C(=O)N[C@@H](CCCCN)C(=O)N[C@@H](CC(F)F)C(=O)N[C@@H](CCCCN)C(=O)N[C@@H](CC(F)F)C(=O)N[C@@H](CCCCN)C(=O)N[C@@H](CC(F)F)C(=O)N[C@@H](CCCCN)C(=O)Nc1ccc(C(N)=O)cc1 [DfeGlyK16, Ac-(DfeGly-Lys)8-[4]Abz-NH2] (Ac-[Abu(4,4-F2)]K[Abu(4,4-F2)]K[Abu(4,4-F2)]K[Abu(4,4-F2)]K[Abu(4,4-F2)]K[Abu(4,4-F2)]K[Abu(4,4-F2)]K[Abu(4,4-F2)]K[4Abz]-NH2) | mostly consumed | digested | lower amounts of DfeGlyK16 and TfeGlyK16 detected than AbuK16 and MfeGlyK16 | – | – | –
